According to patent publication US10092523B2, “Long acting pharmaceutical compositions” (priority 2014, dated 2018):
≈ marks a conversion by molar mass, not a printed value.

Assays:
HIV [1] = conditions: cited from earlier work
HIV [2] = experiment: human protein adjusted IC90; assay type: cell-based; conditions: Human immunodeficiency virus 1; reference line in FIG. 1 and FIG. 2

Row | SMILES | reduced HIV viral load by a mean of (HIV [1]; patients with trough levels >=20 μg/mL and without key baseline Gag polymorphisms at Q369, V370 or T371) [log10/mL] | HIV viral load reduction versus patients without Gag polymorphisms (HIV [1]; users with Gag polymorphisms at Q369, V370 or T371) | IC90 (HIV [2]) [ng/mL]
1 | C=C(C)[C@@H]1CC[C@]2(C(=O)O)CC[C@]3(C)[C@H](CC[C@@H]4[C@@]5(C)CC[C@H](OC(=O)CC(C)(C)C(=O)O)C(C)(C)[C@@H]5CC[C@]43C)[C@@H]12 [Bevirimat] | 1.3 | significantly lower load reductions | –
2 | CC(C)C1=C2[C@H]3CC[C@@H]4[C@@]5(C)CC[C@H](OC(=O)CC(C)(C)C(=O)O)C(C)(C)[C@@H]5CC[C@@]4(C)[C@]3(C)CC[C@@]2([C@@H](O)CN(CCN(C)C)Cc2ccc(Cl)cc2)CC1=O [first compound, 4-(((3aR,5aR,5bR,7aR,9S,11aR,11bR,13aS)-3a-((R)-2-((4-Chlorobenzyl)(2-(dimethylamino)ethyl)amino)-1-hydroxyethyl)-1-isopropyl-5a,5b,8,8,11a-pentamethyl-2-oxo-3,3a,4,5,5a,5b, 6,7,7a,8,9,10,11,11a,11b,12,13,13a-octadecahydro-2H-cyclopenta[a]chrysen-9-yl)oxy)-2,2-dimethyl-4-oxobutanoic acid] | – | – | 4.31 (≈ 5.32 nM)
